Experimental data published in patent US11279733B2, “Peptide antibiotics” (priority 2017, dated 2022).
≈ marks a conversion by molar mass, not a printed value. Positions of bridges follow the written chain, without caps; N, C: chain ends. Non-standard residues stand in square brackets, D forms with d. Residues, ends and D or L forms follow the SMILES beside them. *: point of attachment. Decanoyl(3R-OH) = CCCCCCC[C@@H](O)CC(=O)*; Undecanoyl = CCCCCCCCCCC(=O)*; Lauroyl = CCCCCCCCCCCC(=O)*; dDap = NC[C@@H](N)C(=O)O; Dab = NCC[C@H](N)C(=O)O

Key:
in vitro = conditions: human
Description: Cytotoxicity of the synthesised peptides was evaluated by comparison with commercially available colistin (polymyxin E), polymyxin B (Sigma chemical Co., St. Louis, Mo., U.S.A.) and synthetic octapeptin C4 by conducting lactate dehydrogenase (LDH) assay. CC50 values calculated based on curve fitting of dose dependent inhibition of cell growth represented the cytotoxicity of the peptide. Human kidney 2 (HK2) cells were seeded as 2000 cells per well in a 384 well cell culture plate in a final volume of 20 μL in DMEM/F12 medium (Invitrogen #11330057), in which 10% of FBS was added. Cells were incubated for 24 hours at 37° C., 5% CO2 to allow cells to attach to the plates. Similar conditions were employed for HEK293 and HepG2 cytotoxicity assays.
Cytotoxicity to HEK293 and HepG2 cells was determined using the resazurin assay (McMillian, M. K.; Li, L.; Parker, J. B.; Patel, L.; Zhong, Z.; Gunnett, J. W.; Powers, W. J.; Johnson, M. D. An improved resazurin-based cytotoxicity assay for hepatic cells; Cell Biol. Toxicol. 2002, 18, 157-173; O'Brien, J.; Wilson, I.; Orton, T.; Pognan, F. Investigation of the Alamar Blue (resazurin) fluorescent dye for the assessment of mammalian cell cytotoxicity. Eur. J. Biochem. 2000, 267, 5421-5426). In brief, HEK293 and HepG2 cells were seeded at 4000 cells/well in black-wall, clear-bottom 384-well plates (Corning, Australia) and incubated for 24 h at 37° C., 5% CO2. Compounds were then added into each well. After 24 h incubation, 5 μM resazurin was added per well and incubated at 37° C. for 2 h. Fluorescence intensity was then read using a Polarstar Omega with excitation/emission 560/590. The data was then analyzed using GraphPad Prism 6 software. CC50 values were determined using GraphPad Prism 6 software (Inc. La Jolla, Calif.).

[1] = tested on: P. aeruginosa GN_043, PmxR; conditions: P. aeruginosa GN_043, PmxR
Method in brief: (§1)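 Mid-log cultures grown in Mueller Hinton broth at 37° C were tested by 2-fold broth microdilution at 5×10^5 CFU/mL final. Compounds were dissolved in water and tested over a final range of 32 to 0.015 μg/mL.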

A. baumannii ATCC 19606 = conditions: ATCC 19606
Method in brief: as §1

A. baumannii GN_093 PmxR = conditions: GN 093 PmxR
Method in brief: as §1

[2] = tested on: K. pneumoniae GN_102 PmxR; conditions: GN 102 PmxR
Method in brief: as §1

P. aeruginosa ATCC 27853 = conditions: ATCC 27853
Method in brief: as §1

[3] = tested on: P. aeruginosa GN_105, PmxR; conditions: GN 105, PmxR
Method in brief: as §1

[4] = tested on: K. pneumoniae ATCC 700603, MDR; conditions: ATCC 700603
Method in brief: as §1

K. pneumoniae ATCC 13883 = conditions: ATCC 13883
Method in brief: as §1

[5] = tested on: K. pneumoniae GN_106, PmxR; conditions: GN 106, PmxR
Method in brief: as §1

E. coli ATCC 25922 = conditions: ATCC 25922
Method in brief: as §1

[6] = tested on: K. pneumoniae ATCC BAA-2146, NDM-1 pos; conditions: ATCC BAA-2146
Method in brief: as §1

| Structure (SMILES) | CC50 at 24 h (in vitro) | MIC P. aeruginosa GN_043, PmxR [1] | MIC A. baumannii ATCC 19606 (A. baumannii ATCC 19606) | MIC A. baumannii GN_093 PmxR (A. baumannii GN_093 PmxR) | MIC K. pneumoniae GN_102 PmxR [2] | MIC P. aeruginosa ATCC 27853 (P. aeruginosa ATCC 27853) | MIC P. aeruginosa GN_105, PmxR [3] | MIC K. pneumoniae ATCC 700603, MDR [4] | MIC K. pneumoniae ATCC 13883 (K. pneumoniae ATCC 13883) | MIC K. pneumoniae GN_106, PmxR [5] | MIC E. coli ATCC 25922 (E. coli ATCC 25922) | MIC K. pneumoniae ATCC BAA-2146, NDM-1 pos [6] |
| --- | --- | --- | --- | --- | --- | --- | --- | --- | --- | --- | --- | --- |
| CCCCCCC[C@@H](O)CC(=O)N[C@H](CN)C(=O)N[C@H]1CCNC(=O)[C@H](CC(C)C)NC(=O)[C@H](CCN)NC(=O)[C@H](CCN)NC(=O)[C@H]([C@@H](C)O)NC(=O)[C@@H](Cc2ccccc2)NC(=O)[C@H](CCN)NC1=O [compound 9295, 3(R)OH-nC9CO-D-Dap-cyc[L-Dab-L-Dab-D-Phe-L-Thr-L-Dab-L-Dab-L-Leu]] ({Decanoyl(3R-OH)}-[dDap][Dab][Dab][dF]T[Dab][Dab]L; lactam 2-C) | > 300 µM | 2 µg/mL (≈ 1.96 µM) | 4 µg/mL (≈ 3.93 µM) | 4 µg/mL (≈ 3.93 µM) | 2 µg/mL (≈ 1.96 µM) | 2 µg/mL (≈ 1.96 µM) | 4 µg/mL (≈ 3.93 µM) | 4 µg/mL (≈ 3.93 µM) | 4 µg/mL (≈ 3.93 µM) | 4 µg/mL (≈ 3.93 µM) | 2 µg/mL (≈ 1.96 µM) | 4 µg/mL (≈ 3.93 µM) |
| CCCCCCCCCCC(=O)N[C@H](CN)C(=O)N[C@H]1CCNC(=O)[C@H](CC(C)C)NC(=O)[C@H](CCN)NC(=O)[C@H](CCN)NC(=O)[C@H](CC(C)C)NC(=O)[C@@H](Cc2ccccc2)NC(=O)[C@H](CCN)NC1=O [compound 9296, nC10CO-D-Dap-cyc[L-Dab-L-Dab-D-Phe-L-Leu-L-Dab-L-Dab-L-Leu]] (Undecanoyl-[dDap][Dab][Dab][dF]L[Dab][Dab]L; lactam 2-C) | 63 µM | 1 µg/mL (≈ 0.972 µM) | 16 µg/mL (≈ 15.6 µM) | 32 µg/mL (≈ 31.1 µM) | 2 µg/mL (≈ 1.94 µM) | 2 µg/mL (≈ 1.94 µM) | 32 µg/mL (≈ 31.1 µM) | 2 µg/mL (≈ 1.94 µM) | 4 µg/mL (≈ 3.89 µM) | 4 µg/mL (≈ 3.89 µM) | 4 µg/mL (≈ 3.89 µM) | 4 µg/mL (≈ 3.89 µM) |
| CCCCCCCCCCCC(=O)N[C@H](CN)C(=O)N[C@H]1CCNC(=O)[C@H](CC(C)C)NC(=O)[C@H](CCN)NC(=O)[C@H](CCN)NC(=O)[C@H](CC(C)C)NC(=O)[C@@H](Cc2ccccc2)NC(=O)[C@H](CCN)NC1=O [compound 9297, nC11CO-D-Dap-cyc[L-Dab-L-Dab-D-Phe-L-Leu-L-Dab-L-Dab-L-Leu]] (Lauroyl-[dDap][Dab][Dab][dF]L[Dab][Dab]L; lactam 2-C) | 33 µM | 2 µg/mL (≈ 1.92 µM) | 16 µg/mL (≈ 15.3 µM) | 8 µg/mL (≈ 7.67 µM) | 8 µg/mL (≈ 7.67 µM) | 4 µg/mL (≈ 3.84 µM) | 8 µg/mL (≈ 7.67 µM) | 4 µg/mL (≈ 3.84 µM) | 4 µg/mL (≈ 3.84 µM) | 8 µg/mL (≈ 7.67 µM) | 2 µg/mL (≈ 1.92 µM) | 8 µg/mL (≈ 7.67 µM) |
